What was measured:
[1] = test system: patients with an indication for acoustic neurinoma excision or for vestibular neurotomy; assay: Balance evaluated by static posturography; type: in vivo, human
Description: Sixty patients with an indication for acoustic neurinoma excision or for vestibular neurotomy were included and randomized. Patients were treated for 60 days either with Tanganil® (six injections of two 500 mg vials by IV route, with an interval of 12 hours between injections, the first taking place one hour after the surgery, followed by an oral treatment at a dose of two 500 mg tablets, one in the morning and one in the evening) or with a placebo. Static posturography (not performed at D8 if the subject could not remain standing) was carried out in a standing position under four conditions (eyes open or closed, with or without foam carpeting). With foam carpeting and/or eyes closed, patients are placed under conditions which minimize the role of visual and proprioceptive information. Shifts in a subject's center of gravity during a given time period are recorded in a statokinesigram. This plot makes it possible to study oscillation amplitudes and surface areas. “Anteroposterior” oscillations can be separated from “right-left” oscillations.

[2] = test system: patients with an indication for acoustic neurinoma excision or for vestibular neurotomy; assay: Symptoms (vertigo and vomiting) rated by patients on 10 cm visual analog scales (VAS); type: in vivo, human
Description: Sixty patients with an indication for acoustic neurinoma excision or for vestibular neurotomy were included and randomized. Patients were treated for 60 days either with Tanganil® (six injections of two 500 mg vials by IV route, with an interval of 12 hours between injections, the first taking place one hour after the surgery, followed by an oral treatment at a dose of two 500 mg tablets, one in the morning and one in the evening) or with a placebo. Subjective signs (vertigo and vomiting) were rated by patients on a 10 cm VAS from “absent” to “highly incapacitating”.

[3] = test system: cats having undergone vestibular neurotomy; conditions: oral route, 28 mg per kg per day; cats after vestibular neurotomy; cited from earlier work
vertigo symptomatology = conditions: clinical results reported by various authors; cited from earlier work
[4] = test system: guinea pig after unilateral labyrinthectomy; conditions: cited from earlier work
[5] = test system: patients with an indication for acoustic neurinoma excision or for vestibular neurotomy; assay: Ability to maintain a standing position eight days following neurotomy (randomized, placebo-controlled); type: in vivo, human
Description: Sixty patients with an indication for acoustic neurinoma excision or for vestibular neurotomy were included and randomized. Patients were treated for 60 days either with Tanganil® (six injections of two 500 mg vials by IV route, with an interval of 12 hours between injections, the first taking place one hour after the surgery, followed by an oral treatment at a dose of two 500 mg tablets, one in the morning and one in the evening) or with a placebo.
Vestibular deficit was measured according to the methods described in Vertigo and the practitioner [Les vertiges et le praticien] by P. Tran Ba Huy and C. De Waele (Coll Pathologie Sciences Formation [in French], Ed. John Libbey Eurotext, Paris, 1996) and in Vertigo [Les vertiges] by G. Rancurel, O. Sterkers, E. Vitte, foreword by G. Freyss (Ed. Méd. Spécia. [in French], 1989).
Vestibular reflex was tested at day zero (D0) before neurotomy by caloric testing to objectivize vestibular hyporeflexia or areflexia. This test consists of successively irrigating with warm water then cold the right external auditory meatus then the left, causing in the semicircular canal an endolymph current which moves the ampullary crest. Caloric response is expressed by the appearance of a nystagmus that beats toward the side of the stimulated ear when warm water is applied and toward the opposite side when cold water is applied. The nystagmic response was recorded by video nystagmography and its frequency calculated, i.e., the number of nystagmic beats occurring between the 60th and 90th seconds following the initiation of stimulation. This number quantifies the vestibular response.
The difference in responses between one ear and the other expresses so-called hypovalence, i.e., the difference between the warm and cold responses on the left side and the warm and cold responses on the right side, divided by the total number of responses. In normal subjects, hypovalence is less than 15%. Hypovalence is the main sign of damage to the peripheral vestibular apparatus.
The principle criterion was “able to maintain a standing position at D8” (Yes/No)

[6] = test system: surgical unilateral neurotomy model in the cat; assay: Surgical unilateral neurotomy model (preliminary tests); type: in vivo
[7] = test system: mouse median vestibular neurons (MVN); assay: Electrophysiological study in current clamp mode on median vestibular neurons; type: cell-based; conditions: for effect on action potentials of depolarized neurons: depolarized neurons (approximately −35 mV), after several minutes of application; for Membrane potential: hyperpolarized neurons (approximately −70 mV); for Action potential frequency / Action potential height / Depolarization threshold / Resting potential: neurons spontaneously active at the resting potential
Description: An electrophysiological study was conducted on mouse median vestibular neurons (MVN) in which the membrane potential was artificially maintained at various resting values. In this study, the effects of the D and L enantiomers of acetyl-leucine (1 mM) were tested on the membrane properties of neurons in “current clamp” mode at various membrane potential values: normal membrane potential (approximately −45 mV), potential maintained at a hyperpolarized level of approximately −70 mV or potential maintained at a depolarized level of approximately −35 mV.

Which “static posturography, difference vs placebo” value ([1]; D8, vestibular deficit greater than 75%, eyes open or closed and/or with or without foam) does the source give for `CC(=O)N[C@@H](CC(C)C)C(=O)O` (racemic) [Tanganil®, acetyl-leucine] here?
The value was “either no significant difference was observed between Tanganil® and the placebo or a significant difference was observed between the two groups in favor of the placebo”.

And the “right/left posturography (postural oscillations)” value ([1]; D8, vestibular deficit less than or equal to 75%, with foam, eyes open, p=0.034 vs placebo)?
The value was “+7.9 mm”.

What about the “right/left posturography, difference vs placebo” value ([1]; D8, without foam, eyes open test) of the same molecule?
The value was “no significant difference”.

What about the “static posturography, difference vs placebo” value ([1]; vestibular deficit less than or equal to 75%, regardless of experimental conditions) of the same molecule?
Its value is “significant difference between treatment groups in favor of Tanganil®”.

What about the “right/left posturography (postural oscillations)” value ([1]; vestibular deficit less than or equal to 75%, with foam, eyes closed, p=0.016 vs placebo) of the same molecule?
Its value is “+5.4 mm”.

What about the “right/left posturography (postural oscillations)” value ([1]; vestibular deficit less than or equal to 75%, without foam, eyes closed, p=0.028 vs placebo) of the same molecule?
The value was “+2.8 mm”.

What about the “average change on the vertigo VAS” value ([2]; D8, vestibular deficit less than or equal to 75%) of the same molecule?
Its value is −23.5 mm.

And the “difference vs placebo on vertigo VAS” value ([2]; D8, vestibular deficit less than or equal to 75%, Wilcoxon test p=0.037)?
Its value is “statistically significant difference”.

And the “difference vs placebo on vomiting VAS” value ([2]; vestibular deficit greater than 75%)?
The value was “No significant difference”.

And the “difference vs placebo on vertigo VAS” value ([2]; vestibular deficit greater than 75%, Wilcoxon test p=0.154)?
Its value is “no significant difference”.

What about the “effect on vomiting VAS vs placebo” value ([2]; vestibular deficit less than or equal to 75%, significant difference between the two groups) of the same molecule?
The value was “reduction in vomiting severity”.

What about the “effect on recovery of locomotor equilibrium” value [3] of the same molecule?
Its value is “facilitates the recovery of locomotor equilibrium”.

And the “cases with improvement in vertigo symptomatology, including the disappearance of vertigo attacks” value (vertigo symptomatology)?
The value was “more than 95%”.

What about the “effect on vestibular compensation” value ([4]; after unilateral labyrinthectomy in the guinea pig) of the same molecule?
Its value is “accelerate vestibular compensation”.

And the “effect on normal vestibular functioning” value ([4]; guinea pig)?
The value was “no effect”.

What about the “difference between the two treatment groups, able to maintain a standing position at D8” value ([5]; 25 patients whose vestibular deficit was greater than 75%) of the same molecule?
The value was “no significant difference”.

What about the “difference between the two treatment groups, able to maintain a standing position at D8” value ([5]; 31 patients whose vestibular deficit was less than or equal to 75%, χ^2=0.048) of the same molecule?
Its value is “statistically significant difference”.

What about the “effect on compensation after neurotomy” value ([5]; patient population exhibiting no vestibular functioning before neurotomy) of the same molecule?
The value was “no effect”.

And the “effect on compensation after neurotomy” value ([5]; patients exhibiting residual vestibular functioning)?
Its value is “accelerates the compensation”.

What about the “difference between Tanganil and placebo, able to maintain a standing position at D8” value ([5]; principle analysis of 49 patients) of the same molecule?
Its value is “no statistically significant difference”.

And the “patients able to maintain a standing position at D8” value ([5]; principle analysis of 49 patients, 13 of 22 patients given Tanganil, IV then oral treatment)?
The value was 59.1%.

What about the “patients able to maintain a standing position at D8” value ([5]; subgroup with vestibular deficit less than or equal to 75%, 12 of 16 patients) of the same molecule?
The value was 75%.

With `CC(=O)N[C@H](CC(C)C)C(=O)O` [Acetyl-D-leucine] as the molecule, how does the “activity in surgical unilateral neurotomy model” value [6] read?
Its value is “active”.

What about the “effect on action potentials of depolarized neurons” value ([7]; 1 mM) of the same molecule?
The value was “action potentials stop due to blocking of the membrane potential at a more depolarized level”.

What about the Membrane potential ([7]; before application (baseline)) of the same molecule?
Its Membrane potential is −72.2 ± 5.2 mV.

And the Membrane potential ([7]; during application, 1 mM)?
The Membrane potential was −67.2 ± 4.6 mV.

What about the “effect on the membrane potential of hyperpolarized neurons” value ([7]; hyperpolarized neurons, 1 mM) of the same molecule?
The value was “significantly increases”.

And the Action potential frequency ([7]; before application (baseline))?
The Action potential frequency was 11.5 ± 6.8 Hz.

What about the Action potential height ([7]; before application (baseline)) of the same molecule?
The Action potential height was 59.0 ± 7.7 mV.

What about the Depolarization threshold ([7]; before application (baseline)) of the same molecule?
The Depolarization threshold was −28.1 ± 4.5 mV.

What about the Resting potential ([7]; before application (baseline)) of the same molecule?
Its Resting potential is −42.7 ± 3.6 mV.

What about the Action potential frequency ([7]; during application, 1 mM) of the same molecule?
Its Action potential frequency is 8.9 ± 7.7 Hz.

And the Action potential height ([7]; during application, 1 mM)?
Its Action potential height is 50.7 ± 17.3 mV.

What about the Depolarization threshold ([7]; during application, 1 mM) of the same molecule?
Its Depolarization threshold is −27.0 ± 10.2 mV.

What about the Resting potential ([7]; during application, 1 mM) of the same molecule?
Its Resting potential is −42.0 ± 3.6 mV.

Which “activity in surgical unilateral neurotomy model” value [6] does the source give for `CC(=O)N[C@@H](CC(C)C)C(=O)O` [Acetyl-L-leucine] here?
Its value is “active”.

What about the “effect on action potentials of depolarized neurons” value ([7]; 1 mM) of the same molecule?
Its value is “not observed”.

What about the Membrane potential ([7]; before application (baseline)) of the same molecule?
Its Membrane potential is −70.0 ± 2.1 mV.

What about the Membrane potential ([7]; during application, 1 mM) of the same molecule?
Its Membrane potential is −71.6 ± 3.2 mV.

What about the Action potential frequency ([7]; before application (baseline)) of the same molecule?
Its Action potential frequency is 14.1 ± 9.0 Hz.

And the Action potential height ([7]; before application (baseline))?
The Action potential height was 59.0 ± 7.3 mV.

And the Depolarization threshold ([7]; before application (baseline))?
Its Depolarization threshold is −30.4 ± 5.6 mV.

And the Resting potential ([7]; before application (baseline))?
The Resting potential was −44.5 ± 2.1 mV.

What about the Action potential frequency ([7]; during application, 1 mM) of the same molecule?
Its Action potential frequency is 12.4 ± 7.8 Hz.

And the Action potential height ([7]; during application, 1 mM)?
The Action potential height was 49.8 ± 11.4 mV.

And the Depolarization threshold ([7]; during application, 1 mM)?
The Depolarization threshold was −27.7 ± 8.4 mV.

And the Resting potential ([7]; during application, 1 mM)?
The Resting potential was −42.7 ± 3.7 mV.

From patent publication US20080108702A1, “Use of Acetyl-Leucine for Preparing a Drug for Treating Balance Disorders” (priority 2005, published 2008)
